Laboratory results taken from BigSolDB 2.1.

COc1c(NS(=O)(=O)c2ccc(C)cc2)cc(-c2ccc3ncnc(N4CCOCC4)c3c2)cc1C(N)=O
solubility (mole fraction)
Settings	288.15 K	293.15 K	298.15 K	303.15 K	308.15 K	313.15 K	318.15 K	323.15 K	328.15 K
in acetone	0.000635	0.000707	0.000798	0.001	0.00115	0.00141	0.00185	–	–
in chloroform	0.0027	0.00314	0.00346	0.00398	0.00466	0.00547	0.00637	0.00717	0.00767
in ethyl acetate	0.000286	0.000294	0.000302	0.000329	0.000357	0.000412	0.00045	0.000535	0.000656
in methanol	0.000832	0.000873	0.000919	0.00105	0.00123	0.00151	0.00183	0.00217	0.00267
in toluene	2.41e-05	2.9e-05	3.32e-05	3.98e-05	4.9e-05	5.89e-05	7.91e-05	0.000104	0.00013
in water	8.31e-07	1.19e-06	1.62e-06	2.07e-06	2.53e-06	2.91e-06	3.2e-06	3.47e-06	3.75e-06

COc1c(NS(=O)(=O)c2ccc(F)cc2)cc(-c2ccc3nccc(N4CCOCC4)c3c2)cc1C(N)=O
solubility (mole fraction)
Settings	288.15 K	293.15 K	298.15 K	303.15 K	308.15 K	313.15 K	318.15 K	323.15 K	328.15 K
in acetone	0.000608	0.000638	0.000704	0.000817	0.000941	0.00102	0.00115	–	–
in chloroform	5.21e-05	5.44e-05	5.86e-05	6.66e-05	7.72e-05	9.58e-05	0.000121	0.000149	0.000188
in ethyl acetate	9.85e-05	0.000115	0.000127	0.000138	0.00016	0.000182	0.000187	0.000183	0.000183
in methanol	0.000259	0.000298	0.000338	0.000398	0.000473	0.000518	0.000666	0.000829	0.000977
in toluene	5.82e-06	6.02e-06	6.59e-06	7.29e-06	7.86e-06	9.04e-06	1.03e-05	1.23e-05	1.4e-05
in water	3.54e-07	5.68e-07	7.36e-07	8.18e-07	9.22e-07	1.08e-06	1.28e-06	1.47e-06	1.75e-06

COc1c(NS(=O)(=O)c2ccc(F)cc2)cc(-c2ccc3ncnc(N4CCOCC4)c3c2)cc1C(N)=O
solubility (mole fraction)
Settings	288.15 K	293.15 K	298.15 K	303.15 K	308.15 K	313.15 K	318.15 K	323.15 K	328.15 K
in acetone	0.000317	0.000317	0.000352	0.000419	0.000459	0.000526	0.000592	–	–
in chloroform	0.000145	0.000158	0.000165	0.000188	0.000223	0.000258	0.000303	0.00039	0.000495
in ethyl acetate	9.51e-05	0.000101	0.000114	0.000128	0.00015	0.000171	0.000196	0.00022	0.000239
in methanol	0.000238	0.000301	0.00043	0.000428	0.000613	0.00078	0.00102	0.00105	0.00125
in toluene	1.05e-05	1.05e-05	1.05e-05	1.13e-05	1.31e-05	1.53e-05	1.67e-05	1.83e-05	2.14e-05
in water	5.21e-07	8.05e-07	9.14e-07	1.05e-06	1.16e-06	1.37e-06	1.5e-06	1.98e-06	2.44e-06
